The numbers were not newly measured in patent US20140230256A1, “HAND HELD DEVICE” (The Gillette Company, priority 2013, published 2014), which cites them from elsewhere.

For this series the following is noted: organism not stated.

On to `CCCCCCCCn1sc(Cl)c(Cl)c1=O` [4,5-dichloro-2-n-octyl-4-isothiazolin-3-one], for which the MIC entry is recorded as “about 50 ppm”.
